Assay results from patent US9284362B2, “α/β-peptide mimics of Z-domain peptides” (Wisconsin Alumni Research Foundation, priority 2014, dated 2016).
“Also recorded” adds a separate entry of the source. *1 amine or outer side, *2 acyl side, *3 side chain or, on linkers, in order; H or OH if unused. Where a SMILES comes first, the peptide text is derived from it. Where no end group is shown, it is not given here. [ ]: non-standard residue; d: D form. The star is where a group is joined. ξ: configuration not given here. ξ(4-Aminopyrrolidine-3-CO) = O=C(C1CNCC1N[*:1])[*:2]; NH(1S,2S-2-CONH2-cPent) = NC(=O)[C@H]1CCC[C@@H]1N*; ACPC(1S,2S) = N[C@H]1CCC[C@@H]1C(=O)*; X1 = O=C([C@H]1CCC[C@@H]1N[*:1])[*:2]; X2 = O=C([C@H]1CNC[C@@H]1N[*:1])[*:2]; Aib = CC(C)(N)C(=O)O

How the values were obtained:
[1] = target: T1, HER2 (Homo sapiens, UniProt P04626); details: cited from earlier work
[2] = target: T2, VEGF (Homo sapiens, UniProt P15692); experiment: VEGF competition fluorescence polarization (FP) assay; assay type: binding; details: for binding to VEGF (in words): competition FP assay
T2 construct: made in house
T2 sequence (P15692 27-191 isoform P15692-4): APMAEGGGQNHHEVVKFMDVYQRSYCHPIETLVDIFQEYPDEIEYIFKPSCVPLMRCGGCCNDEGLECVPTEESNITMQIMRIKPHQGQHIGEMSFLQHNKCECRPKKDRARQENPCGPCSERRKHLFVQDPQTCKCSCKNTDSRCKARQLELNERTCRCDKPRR
Method: Inhibitors of the VEGF/VEGFR interaction were evaluated using VEGF direct binding and competition fluorescence polarization (FP) assays, as previously described (Peterson, K. J. et al., Anal. Biochem. 2008, 378, 8-14), but using a modified tracer. […] DMSO stock solutions of α- and α/β-peptide inhibitors were prepared and concentration determined by UV absorbance at 280 nm. Extinction coefficients for α- and α/β-peptides were calculated based on the number of tryptophans (ε280=5690 M^−1 cm^−1), tyrosines (ε280=1280 M^−1 cm^−1), and cystines (ε280=120 M^−1 cm^−1) in each primary sequence (Gill, S. C, et al. Anal. Biochem. 1989, 182, 319-326). […] Each condition was run in duplicate in each assay. Inhibition constants (Ki) were determined from FP data using methods described for a competitive binding model with GraphPad Prism 4.0 (Peterson, K. J. et al., Anal. Biochem. 2008, 378, 8-14). Reported Ki values are representative values from multiple replicate assays.
FP assays were only run once to test binding affinity.

[3] = target: T1, HER2; experiment: Z-HER2 mimics binding, ELISA 3; details: read-out: ELISA 3 Ki calcd.
[4] = Half-life of Z-HER2 mimics (Table 16); assay type: in vitro ADME; details: conditions not given; read-out: half-life t1/2
[5] = target: T3, TNFα (binding to immobilized TNFR1) (Homo sapiens, UniProt P01375); experiment: TNFα/TNFR competition ELISA; details: Table 14; read-out: TNFa-TNFR ELISA IC50
T3 construct: purchased R&D Systems 210-TA-020 (TNFα); 636-R1-025 (sTNF RI)
Method: The binding of α/β-peptides to TNFα to inhibit binding to TNFR was determined by competition ELISA. […] After immobilization, the plate was washed with PBS/0.05% TWEEN, blocked with 1% BSA in PBS for 2 hours, and then washed with PBS/0.05% TWEEN. Serial dilutions of soluble α/β-peptides in DMSO were prepared (final concentrations=0.04 nM-10 μM), and 10 μL of each of these solutions added to 240 μL of recombinant human TNFα (R&D Systems, 210-TA-020, final concentration=0.080 μg/mL) in PBS/0.05% TWEEN. The α/β-peptides were allowed to pre-incubate with TNFα for 3 hours and then 50 μL of each α/β-peptide/TNFα mixture was added to wells on the ELISA plate and incubated at room temperature for 1 hour. The plate was then washed with PBS/0.05% TWEEN and the presence of TNFα detected by adding 100 μL of a 1:500 dilution of Human TNFα Biotinylated Affinity Purified PAb (R&D Systems, BAF210) and incubating at room temperature for 1 hour. […] Plates were read during the time course of the reaction on a BioTek Synergy 2 microplate reader, reading A405. […] To compare the ability of each soluble α/β-peptide to inhibit the binding of TNFα to immobilized TNFR, IC50 values were calculated by fitting the ELISA absorbance data to a sigmoidal dose-response equation.

[6] = Aqueous solubility (PBS)
[7] = tested on: VEGF-induced proliferation of human umbilical vein endothelial cells (HUVECs); experiment: HUVEC proliferation assay (VEGF165-induced, Click-iT EdU); assay type: cell-based; details: 50 μM peptide, 10 ng/mL VEGF165
Method: Human umbilical vein endothelial cells (HUVECs) (Lonza, Basel, Switzerland, catalog no. CC2519) were cultured using Medium 199 (M199) (Mediatech, Herndon, Va., USA; 50-050-PB) supplemented with penicillin/steptomycin (HyClone-brand, Thermo Fisher Scientific, Herndon, Va., USA; SV30010) and EGM-2 (Lonza, CC4176) at 37° C. in 5% CO2. Cells were grown to 60-80% confluence and then serum-starved in M199 with 2% cosmic calf serum (CCS) (HyClone-brand, SH30087) overnight. […] Filter sterilized stock solutions of α- or α/β-peptide in PBS were made at a concentration of 200 μM, as determined by UV absorbance. Appropriate dilutions of α- or α/β-peptide were made with PBS, and the resulting solutions were premixed with recombinant human VEGF165 (R&D Systems, 293-VE-010) or recombinant human FGF basic (FGF-2) (R&D Systems, a wholly owned subsidiary of TECHNE Corporation, Minneapolis, Minn., USA; 233-FB-025) in M199/2% CCS and incubated at room temperature for 1 hour. […] Relative cell proliferation was quantified using the “Click-iT”-brand EdU Alexa Flour 488 Assay (Life Technologies, C10337). […] EdU incorporation was detected using Life Technologies' assay protocol. […] Images were analyzed using NIS-Elements AR Imaging Software (Nikon Instruments, Inc., Melville, N.Y., USA) to count the number of proliferating cells (EdU stained) and total number of cells (Hoechst stained). […]

T3 sequence (P01375 77-233 limits assumed): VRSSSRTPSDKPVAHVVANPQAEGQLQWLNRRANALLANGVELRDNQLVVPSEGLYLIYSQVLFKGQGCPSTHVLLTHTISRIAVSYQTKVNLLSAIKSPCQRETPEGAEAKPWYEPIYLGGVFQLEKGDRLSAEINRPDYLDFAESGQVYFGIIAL

## 82 (VENKFNKEMRNAYWEIALLPNLNNQQKRAFIRSLYDDPG; listed as Homo sapiens) [compound 82]
[1]
  reported Kd: no blinding

## CC[C@H](C)[C@H](NC(=O)[C@H](C)NC(=O)[C@H]1CCC[C@@H]1NC(=O)[C@H](C)NC(=O)[C@H](CC(N)=O)NC(=O)[C@H](Cc1c[nH]cn1)NC(=O)[C@H]1CCC[C@@H]1NC(=O)[C@H](CCC(=O)O)NC(=O)[C@@H](N)CCCCN)C(=O)N[C@@H](CCC(=O)O)C(=O)N[C@H](C(=O)N[C@@H](C)C(=O)N[C@@H](CC(C)C)C(=O)N[C@@H](CC(C)C)C(=O)N1CCC[C@H]1C(=O)N[C@@H](CC(N)=O)C(=O)N[C@@H](CC(C)C)C(=O)N[C@@H](CC(N)=O)C(=O)N[C@@H](CC(=O)O)C(=O)N[C@@H](CCC(N)=O)C(=O)N[C@@H](CCC(N)=O)C(=O)N[C@@H](Cc1ccccc1)C(=O)N[C@@H](Cc1c[nH]cn1)C(=O)N[C@@H](C)C(=O)N[C@H]1CCC[C@@H]1C(=O)N[C@H](C(=O)N[C@@H](Cc1c[nH]c2ccccc12)C(=O)N[C@H]1CCC[C@@H]1C(=O)N[C@@H](CC(C)C)C(=O)N[C@H](C(=O)N[C@@H](CC(=O)O)C(=O)N[C@@H](CC(=O)O)C(=O)N1CCC[C@H]1C(=O)N[C@@H](CO)C(N)=O)[C@@H](C)CC)[C@@H](C)CC)[C@@H](C)CC [E4, KEXHNAXAIEIALLPNLNDQQFHAXIWXLIDDPS] (H-KE[X1]HNA[X1]AIEIALLPNLNDQQFHA[X1]IW[X1]LIDDPS-NH2)
[2]; Table 5, early mimics, FP assay run once
  Ki: > 50000 nM

## CC[C@H](C)[C@H](NC(=O)C1CNCC1NC(=O)[C@H](CCCNC(=N)N)NC(=O)[C@@H](NC(=O)[C@H](CCCCN)NC(=O)C(C)(C)NC(=O)[C@H](CCCNC(=N)N)NC(=O)[C@H](CCCCN)NC(=O)[C@H](CCC(N)=O)NC(=O)C(C)(C)NC(=O)[C@H](CC(N)=O)NC(=O)[C@H](CC(N)=O)NC(=O)[C@H](CC(C)C)NC(=O)[C@H](CC(N)=O)NC(=O)[C@@H]1CCCN1C(=O)[C@H](CC(=O)O)NC(=O)[C@H](CC(C)C)NC(=O)[C@H](C)NC(=O)C(C)(C)NC(=O)[C@H](CCC(=O)O)NC(=O)[C@H](Cc1c[nH]c2ccccc12)NC(=O)[C@H](Cc1ccc(O)cc1)NC(=O)[C@H](CCCNC(=N)N)NC(=O)C1CNCC1NC(=O)[C@H](CCCNC(=N)N)NC(=O)[C@H](CCSC)NC(=O)[C@H]1CCC[C@@H]1NC(=O)[C@H](CCCCN)NC(=O)[C@H](CC(N)=O)NC(=O)[C@@H](N)Cc1ccccc1)[C@@H](C)CC)C(=O)N[C@@H](Cc1ccc(O)cc1)C(=O)N[C@@H](CC(=O)O)C(=O)N[C@@H](CC(=O)O)C(=O)N1CCC[C@H]1C(=O)N[C@@H](CO)C(N)=O (stereo partly shown) [compound 97] (H-FNK[X1]MR[ξ(4-Aminopyrrolidine-3-CO)]RYWE[Aib]ALDPNLNN[Aib]QKR[Aib]KIR[ξ(4-Aminopyrrolidine-3-CO)]IYDDPS-NH2)
[3]
  Ki: 33 nM
[4]
  half-life: 4.33 h

## CC[C@H](C)[C@H](NC(=O)[C@H](CCCNC(=N)N)NC(=O)[C@H](Cc1c[nH]c2ccccc12)NC(=O)CNC(=O)[C@@H](N)CC(C)C)C(=O)NCC(=O)N[C@@H](CCC(=O)O)C(=O)NC(C)(C)C(=O)NCC(=O)N[C@H](C(=O)N[C@@H](CC(=O)O)C(=O)N1CCC[C@H]1C(=O)N[C@@H](CC(N)=O)C(=O)N[C@@H](CC(C)C)C(=O)N[C@@H](CC(N)=O)C(=O)N[C@@H](Cc1c[nH]cn1)C(=O)N[C@@H](CCC(N)=O)C(=O)N[C@@H](CCC(N)=O)C(=O)N[C@@H](Cc1ccccc1)C(=O)N[C@@H](CCCNC(=N)N)C(=O)NC(C)(C)C(=O)N[C@@H](CCCCN)C(=O)N[C@H](C(=O)N[C@@H](CC(C)C)C(=O)N[C@H]1CNC[C@@H]1C(=O)N[C@H](C(=O)N[C@@H](Cc1c[nH]c2ccccc12)C(=O)N[C@H]1CCC[C@@H]1C(N)=O)[C@@H](C)CC)[C@@H](C)CC)[C@@H](C)O [α/β-TNFα-14, LGWRIGEAGTDPNLNHQQFRAKILZIWX-NH2] (H-LGWRIGE[Aib]GTDPNLNHQQFR[Aib]KIL[X2]IW-{NH(1S,2S-2-CONH2-cPent)}; N-terminus assumed)
[5]
  IC50: 1000 nM

## CC[C@H](C)[C@H](NC(=O)[C@H](CCCNC(=N)N)NC(=O)[C@H](Cc1c[nH]c2ccccc12)NC(=O)CNC(=O)[C@H](CC(C)C)NC(=O)[C@H]1CCC[C@@H]1N)C(=O)NCC(=O)N[C@@H](CCC(=O)O)C(=O)NC(C)(C)C(=O)NCC(=O)N[C@H](C(=O)N[C@@H](CC(=O)O)C(=O)N1CCC[C@H]1C(=O)N[C@@H](CC(N)=O)C(=O)N[C@@H](CC(C)C)C(=O)N[C@@H](CC(N)=O)C(=O)N[C@@H](Cc1c[nH]cn1)C(=O)N[C@@H](CCC(N)=O)C(=O)N[C@@H](CCC(N)=O)C(=O)N[C@@H](Cc1ccccc1)C(=O)N[C@@H](CCCNC(=N)N)C(=O)NC(C)(C)C(=O)N[C@@H](CCCCN)C(=O)N[C@H](C(=O)N[C@@H](CC(C)C)C(=O)N[C@H]1CNC[C@@H]1C(=O)N[C@H](C(=O)N[C@@H](Cc1c[nH]c2ccccc12)C(=O)N[C@H]1CCC[C@@H]1C(N)=O)[C@@H](C)CC)[C@@H](C)CC)[C@@H](C)O [α/β-TNFα-16, XLGWRIGEAGTDPNLNHQQFRAKILZIWX-NH2] ({ACPC(1S,2S)}-LGWRIGE[Aib]GTDPNLNHQQFR[Aib]KIL[X2]IW-{NH(1S,2S-2-CONH2-cPent)}; N-terminus assumed)
[5]
  IC50: 510 nM

## KEMHNAYAIEIALLPNLNDQQFHAFIWSLIDDPS-NH2 [Z-VEGF (7-40)]
[2]
  binding to VEGF (in words): showed no binding

## VDNKFNKEMHNAYAIEIALLPNLNDQQFHAFIWSLIDD-NH2 [Z-VEGF (1-38)]
[2]
  binding to VEGF (in words): shows no binding
[2]; listed as Z-VEGF(1-38)
  binding to VEGF (in words): complete loss of binding

## VDNKFNKEQHNARAIEAALDPNLNDQQFHAKIWSIIDD-NH2 [α-VEGF-1]
[2]
  binding to VEGF (in words): does not show binding; also recorded: did not recover binding
[6]
  solubility in PBS at 75 μM: fully soluble
[7]
  inhibition of VEGF-induced HUVEC proliferation (in words): does not show any inhibition

## VDNKFNKEXHNZRAIEAALDPNLNDQQFHAKIWZIIXD [α/β-VEGF-1-linear]
[2]
  binding to VEGF (in words): lack of binding; also recorded: essentially no binding
